Assay: Safety: adverse events (NCI CTCAE v5.0), electrocardiograms
Type: in vivo, human
Conditions: for TEAE Neutropenia, Any grade / TEAE Neutropenia, Grade 3 / TEAE Neutropenia, Grade 4 / TRAE Neutropenia, Any grade / TRAE Neutropenia, Grade 3 / TRAE Neutropenia, Grade 4: includes neutropenia, neutrophil count decreased, febrile neutropenia
Method: Safety assessments included the monitoring of AEs, clinical laboratory parameters, electrocardiograms, and vital signs. AE severity was graded according to the National Cancer Institute Common Terminology Criteria for Adverse Events (version 5.0).
All DLT analyses (phase 1a) were performed in patients enrolled in the study during cycle 1 and who either received 75% of the planned palazestrant doses or experienced a DLT during cycle 1. All PK analyses were performed in patients who received at least 1 dose of palazestrant and had adequate postbaseline PK samples for characterization of PK parameters. All safety analyses were performed and PFS assessed in patients who received at least 1 dose of palazestrant. Clinical response (CR or PR) was assessed in patients who received at least 1 cycle of palazestrant, had measurable disease at baseline, and had at least 1 postbaseline tumor assessment. CBR was assessed in patients who received at least 1 cycle of palazestrant, had at least 1 postbaseline tumor assessment, and started their first dose at least 24 weeks before data cutoff. Patients who discontinued study treatment without radiographic progression within 24 weeks from the first dose were not included in the CBR analysis. PK parameters were estimated using conventional noncompartmental methods. For CBR, estimates were accompanied by 2-sided 95% confidence intervals (95% CIs). For PFS, Kaplan–Meier analyses were used to determine medians, event-free rates, and 95% CIs. For all other outcomes, categorical data were analyzed using frequencies and percentages, and continuous data were analyzed using means (standard deviation) or medians (range), as appropriate.

CCCN1CC(Oc2ccc([C@@H]3c4[nH]c5ccccc5c4C[C@@H](C)N3CC(C)(C)F)cc2)C1 [palazestrant, Palazestrant]
TEAE Constipation, Any grade (60 mg (n = 30)): 6 (20.0) n (%) | TEAE Constipation, Grade 3 (60 mg (n = 30)): 0 n (%) | TEAE Constipation, Grade 4 (60 mg (n = 30)): 0 n (%) | TEAE Diarrhea, Any grade (60 mg (n = 30)): 6 (20.0) n (%) | TEAE Diarrhea, Grade 3 (60 mg (n = 30)): 1 (3.3) n (%) | TEAE Diarrhea, Grade 4 (60 mg (n = 30)): 0 n (%) | TEAE Fatigue, Any grade (60 mg (n = 30)): 13 (43.3) n (%) | TEAE Fatigue, Grade 3 (60 mg (n = 30)): 0 n (%) | TEAE Fatigue, Grade 4 (60 mg (n = 30)): 0 n (%) | TEAE Headache, Any grade (60 mg (n = 30)): 7 (23.3) n (%) | TEAE Headache, Grade 3 (60 mg (n = 30)): 0 n (%) | TEAE Headache, Grade 4 (60 mg (n = 30)): 0 n (%) | TEAE Nausea, Any grade (60 mg (n = 30)): 14 (46.7) n (%) | TEAE Nausea, Grade 3 (60 mg (n = 30)): 0 n (%) | TEAE Nausea, Grade 4 (60 mg (n = 30)): 0 n (%) | TEAE Vomiting, Any grade (60 mg (n = 30)): 5 (16.7) n (%) | TEAE Vomiting, Grade 3 (60 mg (n = 30)): 0 n (%) | TEAE Vomiting, Grade 4 (60 mg (n = 30)): 0 n (%) | TRAE Fatigue, Any grade (60 mg (n = 30)): 9 (30.0) n (%) | TRAE Fatigue, Grade 3 (60 mg (n = 30)): 0 n (%) | TRAE Fatigue, Grade 4 (60 mg (n = 30)): 0 n (%) | TRAE Headache, Any grade (60 mg (n = 30)): 3 (10.0) n (%) | TRAE Headache, Grade 3 (60 mg (n = 30)): 0 n (%) | TRAE Headache, Grade 4 (60 mg (n = 30)): 0 n (%) | TRAE Nausea, Any grade (60 mg (n = 30)): 10 (33.3) n (%) | TRAE Nausea, Grade 3 (60 mg (n = 30)): 0 n (%) | TRAE Nausea, Grade 4 (60 mg (n = 30)): 0 n (%) | TRAE Vomiting, Any grade (60 mg (n = 30)): 3 (10.0) n (%) | TRAE Vomiting, Grade 3 (60 mg (n = 30)): 0 n (%) | TRAE Vomiting, Grade 4 (60 mg (n = 30)): 0 n (%) | TEAE Neutropenia, Any grade (60 mg (n = 30)): 2 (6.7) n (%) | TEAE Neutropenia, Grade 3 (60 mg (n = 30)): 0 n (%) | TEAE Neutropenia, Grade 4 (60 mg (n = 30)): 0 n (%) | TRAE Neutropenia, Any grade (60 mg (n = 30)): 0 n (%) | TRAE Neutropenia, Grade 3 (60 mg (n = 30)): 0 n (%) | TRAE Neutropenia, Grade 4 (60 mg (n = 30)): 0 n (%) | TEAE Constipation, Any grade (120 mg (n = 86)): 15 (17.4) n (%) | TEAE Constipation, Grade 3 (120 mg (n = 86)): 0 n (%) | TEAE Constipation, Grade 4 (120 mg (n = 86)): 0 n (%) | TEAE Diarrhea, Any grade (120 mg (n = 86)): 12 (14.0) n (%) | TEAE Diarrhea, Grade 3 (120 mg (n = 86)): 0 n (%) | TEAE Diarrhea, Grade 4 (120 mg (n = 86)): 0 n (%) | TEAE Fatigue, Any grade (120 mg (n = 86)): 22 (25.6) n (%) | TEAE Fatigue, Grade 3 (120 mg (n = 86)): 3 (3.5) n (%) | TEAE Fatigue, Grade 4 (120 mg (n = 86)): 0 n (%) | TEAE Headache, Any grade (120 mg (n = 86)): 17 (19.8) n (%) | TEAE Headache, Grade 3 (120 mg (n = 86)): 0 n (%) | TEAE Headache, Grade 4 (120 mg (n = 86)): 0 n (%) | TEAE Nausea, Any grade (120 mg (n = 86)): 54 (62.8) n (%) | TEAE Nausea, Grade 3 (120 mg (n = 86)): 3 (3.5) n (%) | TEAE Nausea, Grade 4 (120 mg (n = 86)): 0 n (%) | TEAE Vomiting, Any grade (120 mg (n = 86)): 25 (29.1) n (%) | TEAE Vomiting, Grade 3 (120 mg (n = 86)): 4 (4.7) n (%) | TEAE Vomiting, Grade 4 (120 mg (n = 86)): 0 n (%) | TRAE Fatigue, Any grade (120 mg (n = 86)): 17 (19.8) n (%) | TRAE Fatigue, Grade 3 (120 mg (n = 86)): 2 (2.3) n (%) | TRAE Fatigue, Grade 4 (120 mg (n = 86)): 0 n (%) | TRAE Headache, Any grade (120 mg (n = 86)): 13 (15.1) n (%) | TRAE Headache, Grade 3 (120 mg (n = 86)): 0 n (%) | TRAE Headache, Grade 4 (120 mg (n = 86)): 0 n (%) | TRAE Nausea, Any grade (120 mg (n = 86)): 47 (54.7) n (%) | TRAE Nausea, Grade 3 (120 mg (n = 86)): 3 (3.5) n (%) | TRAE Nausea, Grade 4 (120 mg (n = 86)): 0 n (%) | TRAE Vomiting, Any grade (120 mg (n = 86)): 21 (24.4) n (%) | TRAE Vomiting, Grade 3 (120 mg (n = 86)): 2 (2.3) n (%) | TRAE Vomiting, Grade 4 (120 mg (n = 86)): 0 n (%) | TEAE Neutropenia, Any grade (120 mg (n = 86)): 21 (24.4) n (%) | TEAE Neutropenia, Grade 3 (120 mg (n = 86)): 3 (3.5) n (%) | TEAE Neutropenia, Grade 4 (120 mg (n = 86)): 6 (7.0) n (%) | TRAE Neutropenia, Any grade (120 mg (n = 86)): 18 (20.9) n (%) | TRAE Neutropenia, Grade 3 (120 mg (n = 86)): 3 (3.5) n (%) | TRAE Neutropenia, Grade 4 (120 mg (n = 86)): 5 (5.8) n (%) | grade 4 neutropenia resolved with dose interruption followed by dose reduction, treatment continued with no further neutropenia (120 mg/day): 3 patients | Grade 3 TEAE fatigue (120 mg/day (n = 86)): 3.5% | Grade 3 TEAE nausea (120 mg/day (n = 86)): 3.5% | Grade 3 TEAE neutropenia (120 mg/day (n = 86)): 3.5% | Grade 3 TEAE vomiting (120 mg/day (n = 86)): 4.7% | TEAE fatigue, any grade (120 mg/day (n = 86)): 25.6% | TEAE nausea, any grade (120 mg/day (n = 86)): 62.8% | TEAE vomiting, any grade (120 mg/day (n = 86)): 29.1% | TRAE fatigue, any grade (120 mg/day (n = 86)): 19.8% | TRAE headache, any grade (120 mg/day (n = 86)): 15.1%

— paper PMC12210654, “Palazestrant, a novel oral Complete Estrogen Receptor Antagonist (CERAN) and Selective Estrogen Receptor Degrader (SERD), in patients with ER+/HER2− advanced or metastatic breast cancer: phase 1/2 study results” (Breast Cancer Research : BCR, 2025)
